Measured values reported in article PMC2813186 (Biochemistry, 2009).
Values belong to the molecule of their own block, whether it stands above or below them. Ends that are not written are not given here.

What was measured:
Prep [1] = biological target: T1, Prep (Mus musculus, UniProt Q9QUR6); assay: Prep inhibition with CGRP; assay type: biochemical
Prep [2] = assay: CNS tissue; settings: WT mice (C57BL/6), up to 4 hours
Prep [3] = biological target: T1, Prep; assay: label-free LC-MS peptidomics of CNS tissues, S17092 versus vehicle treated mice; assay type: in vivo; settings: S17092 30 mg/kg i.p.
recombinant Prep = assay: recombinant Prep; settings: mouse, 25°C, up to 60 minutes

T1 sequence (Q9QUR6 whole entry): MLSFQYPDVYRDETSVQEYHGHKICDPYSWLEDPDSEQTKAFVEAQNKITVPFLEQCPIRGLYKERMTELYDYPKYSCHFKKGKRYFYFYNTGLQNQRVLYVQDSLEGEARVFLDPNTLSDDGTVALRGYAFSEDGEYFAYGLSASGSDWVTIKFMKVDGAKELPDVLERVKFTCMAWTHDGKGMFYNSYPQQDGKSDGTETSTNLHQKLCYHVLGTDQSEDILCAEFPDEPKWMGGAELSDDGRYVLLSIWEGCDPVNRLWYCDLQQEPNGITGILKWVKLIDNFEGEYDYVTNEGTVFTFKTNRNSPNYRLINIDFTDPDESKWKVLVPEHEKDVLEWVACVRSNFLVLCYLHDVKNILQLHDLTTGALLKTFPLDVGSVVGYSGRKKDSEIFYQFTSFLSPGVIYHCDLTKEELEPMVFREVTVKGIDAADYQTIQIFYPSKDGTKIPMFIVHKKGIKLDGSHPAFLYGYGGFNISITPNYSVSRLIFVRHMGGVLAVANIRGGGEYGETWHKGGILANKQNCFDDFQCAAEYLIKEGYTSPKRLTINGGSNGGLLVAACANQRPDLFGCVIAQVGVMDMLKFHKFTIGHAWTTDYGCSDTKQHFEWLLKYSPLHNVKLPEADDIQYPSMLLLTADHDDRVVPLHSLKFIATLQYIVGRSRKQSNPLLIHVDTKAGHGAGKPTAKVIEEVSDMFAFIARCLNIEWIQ

IC50 (Prep [1]): 2000 nM
Molecule: CC(C)C[C@H](NC(=O)CNC(=O)[C@H](C)NC(=O)[C@H](CC(C)C)NC(=O)[C@H](CCCNC(=N)N)NC(=O)[C@H](Cc1c[nH]cn1)NC(=O)[C@@H](NC(=O)[C@@H](NC(=O)[C@@H]1CSSC[C@H](NC(=O)[C@@H](N)CO)C(=O)N[C@@H](CC(N)=O)C(=O)N[C@@H]([C@@H](C)O)C(=O)N[C@@H](C)C(=O)N[C@@H]([C@@H](C)O)C(=O)N1)C(C)C)[C@@H](C)O)C(=O)N[C@@H](CC(C)C)C(=O)N[C@@H](CO)C(=O)N[C@@H](CCCNC(=N)N)C(=O)N[C@@H](CO)C(=O)NCC(=O)NCC(=O)N[C@H](C(=O)N[C@H](C(=O)N[C@@H](CCCCN)C(=O)N[C@@H](CC(=O)O)C(=O)N[C@@H](CC(N)=O)C(=O)N[C@@H](Cc1ccccc1)C(=O)N[C@H](C(=O)N1CCC[C@H]1C(=O)N[C@H](C(=O)N[C@@H](CC(N)=O)C(=O)N[C@H](C(=O)NCC(=O)N[C@@H](CO)C(=O)N[C@@H](CCC(=O)O)C(=O)N[C@@H](C)C(=O)N[C@@H](Cc1ccccc1)C(N)=O)C(C)C)[C@@H](C)O)C(C)C)C(C)C)C(C)C [CGRP(1–37), calcitonin gene-related peptide]

fragment found (Prep [2]): Penk(123–133)
Molecule: MDELYPMEPEEEANGGEILA

Molecule: GGVVKDNFVPTNVGSEAF-NH2 [CGRP(20–37)]
Levels of Prep substrates in the spinal cord 1 hour and 4 hours after i.p. S17092 administration (Prep [3]): significantly elevated at 1 hour (gray bar) and 4 hours

fragment found (recombinant Prep): CGRP(30–37)
Molecule: GGVVKDNFVPTNVGSEAF-NH2

fragment found (Prep [2]): Vgf(490–502)
Molecule: APPEPVPPPRAAPAPTHV
